Reference: paper PMC3109749 (ACS medicinal chemistry letters, 2011)

Tests used:
[1] = molecular target: T1, serine hydrolase superfamily (FAAH and other FP-reactive serine hydrolases) (Homo sapiens, UniProt O00519); assay type: biochemical; conditions: brain membrane proteome; at both 10 and 100 μM
T1 sequence (O00519 1-579): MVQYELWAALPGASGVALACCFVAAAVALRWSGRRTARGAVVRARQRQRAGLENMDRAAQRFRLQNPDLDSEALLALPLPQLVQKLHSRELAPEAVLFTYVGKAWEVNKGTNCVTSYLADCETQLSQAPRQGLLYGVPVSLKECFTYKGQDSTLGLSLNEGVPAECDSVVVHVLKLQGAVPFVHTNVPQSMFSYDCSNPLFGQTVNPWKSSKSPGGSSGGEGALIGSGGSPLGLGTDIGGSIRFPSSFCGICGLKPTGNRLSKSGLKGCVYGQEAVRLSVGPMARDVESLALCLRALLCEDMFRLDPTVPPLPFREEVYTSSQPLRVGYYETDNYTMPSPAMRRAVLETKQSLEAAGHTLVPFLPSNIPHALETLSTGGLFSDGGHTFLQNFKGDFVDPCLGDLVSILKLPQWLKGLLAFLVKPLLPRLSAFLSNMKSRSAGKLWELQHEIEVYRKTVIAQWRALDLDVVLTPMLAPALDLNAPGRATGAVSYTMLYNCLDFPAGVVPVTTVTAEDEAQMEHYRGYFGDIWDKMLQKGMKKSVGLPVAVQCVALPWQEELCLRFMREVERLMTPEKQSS

[2] = system: serine hydrolase superfamily (FAAH and other FP-reactive serine hydrolases); assay type: biochemical, human; conditions: for off targets in human membrane proteome (ABPP): brain membrane proteome, 10 and 100 μM
[3] = molecular target: T2, serine hydrolase superfamily (FAAH and other FP-reactive serine hydrolases) (Mus musculus, UniProt O08914); assay type: biochemical; conditions: brain membrane proteome; at both 10 and 100 μM
T2 sequence (O08914 1-579): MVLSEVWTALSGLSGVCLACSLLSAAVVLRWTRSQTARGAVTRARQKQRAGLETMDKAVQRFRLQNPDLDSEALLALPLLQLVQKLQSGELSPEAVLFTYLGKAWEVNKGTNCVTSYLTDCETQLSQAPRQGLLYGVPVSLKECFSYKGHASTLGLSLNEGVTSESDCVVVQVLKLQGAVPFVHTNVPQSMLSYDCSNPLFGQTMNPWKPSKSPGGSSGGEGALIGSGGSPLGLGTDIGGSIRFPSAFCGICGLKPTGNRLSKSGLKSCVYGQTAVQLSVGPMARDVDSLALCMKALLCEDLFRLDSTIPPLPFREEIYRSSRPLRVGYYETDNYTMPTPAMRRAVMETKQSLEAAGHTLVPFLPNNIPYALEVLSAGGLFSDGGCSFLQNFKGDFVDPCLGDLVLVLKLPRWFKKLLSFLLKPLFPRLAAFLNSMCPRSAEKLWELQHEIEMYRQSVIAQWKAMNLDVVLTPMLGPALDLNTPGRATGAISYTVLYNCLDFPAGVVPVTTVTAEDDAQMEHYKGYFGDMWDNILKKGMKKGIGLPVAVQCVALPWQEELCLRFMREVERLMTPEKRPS

[4] = system: serine hydrolase superfamily (FAAH and other FP-reactive serine hydrolases); assay type: biochemical, mouse; conditions: for off targets in mouse membrane proteome (ABPP): brain membrane proteome, 10 and 100 μM
[5] = system: rat model of inflammatory pain (CFA); conditions: not shown in this paper's figure; cited from earlier work
human FAAH (hFAAH) = molecular target: T3, human FAAH (hFAAH) (Homo sapiens, UniProt O00519); test: enzyme-coupled human FAAH assay, kinact/Ki; assay type: biochemical
T3 sequence (O00519 32-579 limits assumed): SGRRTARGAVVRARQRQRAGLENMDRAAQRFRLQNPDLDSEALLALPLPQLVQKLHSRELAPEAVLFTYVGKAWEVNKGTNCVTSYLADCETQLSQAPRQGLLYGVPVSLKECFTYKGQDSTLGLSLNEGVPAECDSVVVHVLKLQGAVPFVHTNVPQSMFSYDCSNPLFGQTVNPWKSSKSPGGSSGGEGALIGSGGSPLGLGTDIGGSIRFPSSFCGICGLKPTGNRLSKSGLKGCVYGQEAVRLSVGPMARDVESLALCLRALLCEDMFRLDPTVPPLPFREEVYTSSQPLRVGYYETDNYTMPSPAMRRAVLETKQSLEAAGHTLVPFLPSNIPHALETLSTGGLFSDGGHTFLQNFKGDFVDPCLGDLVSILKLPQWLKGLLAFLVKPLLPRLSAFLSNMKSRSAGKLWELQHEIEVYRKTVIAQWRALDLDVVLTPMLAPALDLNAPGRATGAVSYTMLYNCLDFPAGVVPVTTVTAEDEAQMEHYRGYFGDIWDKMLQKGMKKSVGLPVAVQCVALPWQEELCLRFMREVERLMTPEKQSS

rat FAAH (rFAAH) = molecular target: T4, rat FAAH (rFAAH) (Rattus norvegicus, UniProt P97612); test: enzyme-coupled rat FAAH assay, kinact/Ki; assay type: biochemical
T4 sequence (P97612 1-579): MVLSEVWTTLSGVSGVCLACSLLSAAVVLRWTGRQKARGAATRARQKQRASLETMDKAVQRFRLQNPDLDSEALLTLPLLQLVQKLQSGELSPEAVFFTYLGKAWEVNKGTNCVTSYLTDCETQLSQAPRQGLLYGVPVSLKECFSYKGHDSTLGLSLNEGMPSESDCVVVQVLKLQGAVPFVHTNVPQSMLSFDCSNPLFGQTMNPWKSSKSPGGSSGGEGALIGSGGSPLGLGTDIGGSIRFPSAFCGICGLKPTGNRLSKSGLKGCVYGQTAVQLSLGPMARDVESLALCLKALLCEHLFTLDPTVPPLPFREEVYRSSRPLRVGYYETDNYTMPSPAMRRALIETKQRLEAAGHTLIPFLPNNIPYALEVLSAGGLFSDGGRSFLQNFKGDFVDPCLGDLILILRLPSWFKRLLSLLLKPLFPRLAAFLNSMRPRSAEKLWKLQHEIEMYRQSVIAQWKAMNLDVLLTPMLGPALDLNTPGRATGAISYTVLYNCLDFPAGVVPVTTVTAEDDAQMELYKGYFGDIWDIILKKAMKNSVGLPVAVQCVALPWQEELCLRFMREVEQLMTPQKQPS

FAAH = molecular target: T5, FAAH (Rattus norvegicus, UniProt P97612); test: in vivo FAAH activity accompanying efficacy; conditions: at efficacious doses starting at 0.1 mg/kg; with elevations in anandamide and other fatty acid amides in brain and plasma
T5 sequence (P97612 1-579): T4 sequence (P97612 1-579)

[6] = human liver microsomal stability and binding; assay type: in vitro ADME; conditions: predicted from in vitro experiments
[7] = soluble proteome of liver, up to 100 μM

## NC(=O)c1cccc(-c2cccc(OC(=O)NC3CCCCC3)c2)c1 [Compound 2]
[1]
  inhibition of FAAH in human membrane proteome (ABPP): completely inhibited FAAH
[2]
  off targets in human membrane proteome (ABPP): no off targets
[2]; [7]
  off targets among serine hydrolases in human soluble liver proteome (ABPP): multiple off targets
[3]
  inhibition of FAAH in mouse membrane proteome (ABPP): completely inhibited FAAH
[4]
  off targets in mouse membrane proteome (ABPP): no off targets
[4]; [7]
  off targets among serine hydrolases in mouse soluble liver proteome (ABPP): multiple off targets

## O=C(Nc1cccnc1)N1CCC(Cc2cccc(Oc3ccc(C(F)(F)F)cn3)c2)CC1 [Compound 7]
[5]
  minimum effective dose (MED), mechanical allodynia: 3 mg/kg

## O=C(Nc1cccnc1)N1CCC(=Cc2cccc(Oc3ccc(C(F)(F)F)cn3)c2)CC1 [Compound 11]
Human FAAH (hFAAH); compared to PF-3845 (7)
  fold more potent (higher kinact/Ki) than 7 for hFAAH: approximately 2 fold
Rat FAAH (rFAAH); compared to PF-3845 (7)
  fold more potent (higher kinact/Ki) than 7 for rFAAH: ~4 fold

## O=C(Nc1cccnc1)N1CCC/C(=C\c2cccc(Oc3ccc(C(F)(F)F)cn3)c2)C1 [Compound 16]
Human FAAH (hFAAH); compared to 11
  fold less potent than 11 for hFAAH: approximately 19 fold

## O=C(Nc1cccnc1)N1CCC/C(=C/c2cccc(Oc3ccc(C(F)(F)F)cn3)c2)C1 [Compound 17]
Human FAAH (hFAAH); relative to the parent analogue (9 vs 4, 10 vs 5, 12-17 vs 11)
  FAAH potency in words: activity was almost completely abolished

## O=C(Nc1cnccn1)N1CCC(=Cc2cccc(Oc3ccc(C(F)(F)F)cn3)c2)CC1 [Compound 22]
Human FAAH (hFAAH); compared to 11
  fold higher kinact/Ki value for hFAAH as compared to 11: 2 fold

## O=C(Nc1cccnn1)N1CCC(=Cc2cccc(Oc3ccc(C(F)(F)F)cn3)c2)CC1 [Compound 23]
[1]
  inhibition of FAAH in human membrane proteome (ABPP): completely inhibited FAAH
[2]
  off targets in human membrane proteome (ABPP): no off targets
FAAH
  inhibition of FAAH activity in vivo: near complete inhibition of FAAH activity
[3]
  inhibition of FAAH in mouse membrane proteome (ABPP): completely inhibited FAAH
[4]
  off targets in mouse membrane proteome (ABPP): no off targets
[6]
  predicted human blood clearance: 0.6 mL/min/kg

## Cc1noc(NC(=O)N2CCC(=Cc3cccc(Oc4ccc(C(F)(F)F)cn4)c3)CC2)c1C [Compound 24]
Human FAAH (hFAAH)
  fold less potent for hFAAH as compared to 23: 5 fold
Rat FAAH (rFAAH); compared to 23
  fold more potent for rFAAH as compared to 23: 2 fold

## O=C(Nc1cccnn1)N1CCC(=Cc2cccc(Oc3ccc(C(F)(F)F)cc3)c2)CC1 [Compound 26]
Human FAAH (hFAAH)
  fold less potent for hFAAH as compared to 23: 2 fold

## O=C(Nc1cccnn1)N1CCC(=Cc2cccc(Oc3ccccc3)c2)CC1 [Compound 27]
Human FAAH (hFAAH); compared to 26
  additional fold loss in potency on removal of the trifluoromethyl substituent: 10 fold

## O=C(Nc1cccnn1)N1CCC(=Cc2cccc(Oc3ccc(C(F)(F)F)nc3)c2)CC1 [Compound 28]
Human FAAH (hFAAH)
  fold less potent for hFAAH as compared to 23: ≤ 2 fold
